Experimental data from ChEMBL document CHEMBL1201862, “PubChem BioAssay data set” (2004).
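Briefly, cells in 96-well plates were exposed to five compound concentrations for 48 h, and endpoints were estimated by linear interpolation. GI50 = concentration required for 50% inhibition of growth.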 The source made the active and inactive calls. Rule as the data show it: active = GI50 up to about 1.1 µM and inactive = higher.

Assays:
Test in all cases: inhibition of tumour cell growth, NCI panel, 48 h
HCT-15 = test system: HCT-15
TK-10 = test system: TK-10
HCT-116 = test system: HCT-116
NCI-H522 = test system: NCI-H522
HT-29 = test system: HT-29
LXFL 529 = test system: LXFL 529
Malme-3M = test system: Malme-3M
786-0 = test system: 786-0
RXF 393 = test system: RXF 393
RPMI-8226 = test system: RPMI-8226
HCC 2998 = test system: HCC 2998
SK-MEL-5 = test system: SK-MEL-5
OVCAR-8 = test system: OVCAR-8
COLO 205 = test system: COLO 205
SW-620 = test system: SW-620
SNB-75 = test system: SNB-75
NCI-H226 = test system: NCI-H226
HOP-62 = test system: HOP-62
CAKI-1 = test system: CAKI-1
T47D = test system: T47D

Row | SMILES | GI50 (HCT-15) [µM] | GI50 (TK-10) | GI50 (HCT-116) | GI50 (NCI-H522) | GI50 (HT-29) | GI50 (LXFL 529) | GI50 (Malme-3M) | GI50 (786-0) | GI50 (RXF 393) | GI50 (RPMI-8226) | GI50 (HCC 2998) | GI50 (SK-MEL-5) | GI50 (OVCAR-8) | GI50 (COLO 205) | GI50 (SW-620) | GI50 (SNB-75) | GI50 (NCI-H226) | GI50 (HOP-62) | GI50 (CAKI-1) | GI50 (T47D)
1 | CCCN1CC=CCC1 | > 100 | > 100 µM (inactive) | > 100 µM (inactive) | > 100 µM (inactive) | > 100 µM (inactive) | > 100 µM (inactive) | > 100 µM (inactive) | > 100 µM (inactive) | > 100 µM (inactive) | > 100 µM (inactive) | > 100 µM (inactive) | > 100 µM (inactive) | > 100 µM (inactive) | > 100 µM (inactive) | > 100 µM (inactive) | > 100 µM (inactive) |  |  |  | 
2 | CCC1CN2CCc3c([nH]c4ccccc34)C2C[C@@H]1CC(=O)N(C)C (stereo partly specified) | > 100 | > 100 µM (inactive) | > 100 µM (inactive) | > 100 µM (inactive) | > 100 µM (inactive) | > 100 µM (inactive) | > 100 µM (inactive) | > 100 µM (inactive) | > 100 µM (inactive) |  | > 100 µM (inactive) | > 100 µM (inactive) | > 100 µM (inactive) | > 100 µM (inactive) | > 100 µM (inactive) | 21.4 µM (inactive) | > 100 µM (inactive) | > 100 µM (inactive) |  | 
3 | CCOc1ccc2c(c1)[n+]([O-])c(S(=O)(=O)c1ccc(C)cc1)c(N)[n+]2[O-] |  | > 100 µM (inactive) | > 100 µM (inactive) | 49.2 µM (inactive) | > 100 µM (inactive) | > 100 µM (inactive) | > 100 µM (inactive) | > 100 µM (inactive) |  | > 100 µM (inactive) | > 100 µM (inactive) | > 100 µM (inactive) | > 100 µM (inactive) | > 100 µM (inactive) | > 100 µM (inactive) | 91.6 µM (inactive) | > 100 µM (inactive) | > 100 µM (inactive) | > 100 µM (inactive) | 
4 | Cc1cc(N(CCC#N)CCC#N)ccc1/C=C1N=C(/C=C/c2ccccc2)N(c2ccc(S(N)(=O)=O)cc2)C\1=O | > 100 | > 100 µM (inactive) | > 100 µM (inactive) | > 100 µM (inactive) | > 100 µM (inactive) | > 100 µM (inactive) | > 100 µM (inactive) | > 100 µM (inactive) |  | 34.3 µM (inactive) |  | > 100 µM (inactive) | > 100 µM (inactive) | > 100 µM (inactive) | > 100 µM (inactive) | > 100 µM (inactive) | > 100 µM (inactive) | > 100 µM (inactive) | > 100 µM (inactive) | 
5 | BrC1(Br)C2/C=C\CCCCC21 (stereo unspecified) |  | > 100 µM (inactive) | > 100 µM (inactive) | > 100 µM (inactive) | > 100 µM (inactive) | > 100 µM (inactive) | > 100 µM (inactive) | > 100 µM (inactive) | > 100 µM (inactive) |  | > 100 µM (inactive) |  | > 100 µM (inactive) | > 100 µM (inactive) | > 100 µM (inactive) |  | > 100 µM (inactive) | > 100 µM (inactive) | > 100 µM (inactive) | 
6 | Cc1ccc(Oc2ccc(C)cc2N)cc1 | 48.5 | > 100 µM (inactive) | > 100 µM (inactive) |  | 52.5 µM (inactive) | > 100 µM (inactive) | > 100 µM (inactive) | 86.9 µM (inactive) | 31.5 µM (inactive) | 97.9 µM (inactive) | > 100 µM (inactive) | 44.1 µM (inactive) | > 100 µM (inactive) | > 100 µM (inactive) | > 100 µM (inactive) | 16.5 µM (inactive) | 48.6 µM (inactive) | > 100 µM (inactive) |  | 
7 | CC(=O)NNc1nc(C)c(C(/C=C/c2ccc(NC(C)=O)cc2)=N/NS(=O)(=O)c2ccc(C)cc2)s1 | > 100 | > 100 µM (inactive) | > 100 µM (inactive) | > 100 µM (inactive) | > 100 µM (inactive) |  | > 100 µM (inactive) | > 100 µM (inactive) | > 100 µM (inactive) | > 100 µM (inactive) | > 100 µM (inactive) | > 100 µM (inactive) | > 100 µM (inactive) | > 100 µM (inactive) | > 100 µM (inactive) | > 100 µM (inactive) | > 100 µM (inactive) | > 100 µM (inactive) | > 100 µM (inactive) | > 100 µM (inactive)
8 | Oc1cc(-c2ccccn2)nc2cccc(F)c12 |  | > 100 µM (inactive) |  | > 100 µM (inactive) | > 100 µM (inactive) | 74.1 µM (inactive) |  | > 100 µM (inactive) | > 100 µM (inactive) | > 100 µM (inactive) | 0.641 µM (active) | 61.4 µM (inactive) | > 100 µM (inactive) | > 100 µM (inactive) | > 100 µM (inactive) | 51.4 µM (inactive) | > 100 µM (inactive) | > 100 µM (inactive) |  | 
9 | Cc1ccc(S(=O)(=O)NNC(=O)Nc2cccc(C(F)(F)F)c2)cc1 | 89.1 | > 100 µM (inactive) | 97.1 µM (inactive) | 38.4 µM (inactive) | > 100 µM (inactive) |  | > 100 µM (inactive) | > 100 µM (inactive) | 85.7 µM (inactive) | > 100 µM (inactive) | > 100 µM (inactive) | 33.3 µM (inactive) | > 100 µM (inactive) | > 100 µM (inactive) | > 100 µM (inactive) | 0.0284 µM (active) | 44.7 µM (inactive) | > 100 µM (inactive) | > 100 µM (inactive) | > 100 µM (inactive)
10 | CC(=O)c1ccc2c(c1)CC1(C2)Cc2cc3c(c(C(=O)O)c2C1)CCC3 (stereo unspecified) | > 100 | > 100 µM (inactive) | > 100 µM (inactive) | 79.6 µM (inactive) | > 100 µM (inactive) |  | 53.1 µM (inactive) | > 100 µM (inactive) | > 100 µM (inactive) | 63.7 µM (inactive) | > 100 µM (inactive) | 44.6 µM (inactive) | > 100 µM (inactive) | 53.1 µM (inactive) | > 100 µM (inactive) | 61.5 µM (inactive) | > 100 µM (inactive) | > 100 µM (inactive) | > 100 µM (inactive) | 53.5 µM (inactive)
11 | COC(=O)c1cc(C#N)[nH]c1-c1cc(Br)cs1 | 15.1 | 20.3 µM (inactive) | 12.8 µM (inactive) | 2.1 µM (inactive) | 14.2 µM (inactive) |  | 10.8 µM (inactive) | 19.1 µM (inactive) | 5.32 µM (inactive) | 7.55 µM (inactive) | > 41.7 µM (inactive) | 7.73 µM (inactive) | 14.7 µM (inactive) | 14.3 µM (inactive) | 17.7 µM (inactive) | 2.69 µM (inactive) | 10.9 µM (inactive) | 11.1 µM (inactive) | 17.5 µM (inactive) | 2.13 µM (inactive)
12 | CC1=CC(=O)c2ccccc2C1=O [MENADIONE] | 3.42 | 19.9 µM (inactive) | 2 µM (inactive) | 5.06 µM (inactive) | 17.9 µM (inactive) |  | 4.76 µM (inactive) | 14.6 µM (inactive) | 13.4 µM (inactive) | 1.72 µM (inactive) | 17 µM (inactive) | 2.18 µM (inactive) | 10.1 µM (inactive) | 17.7 µM (inactive) | 2.14 µM (inactive) | 10.2 µM (inactive) | 14.3 µM (inactive) | 16.1 µM (inactive) | 16.1 µM (inactive) | 2.01 µM (inactive)
13 | COc1cc(C)c2c(c1C=O)Oc1c(c(C)c(O)c3c1C(O)OC3=O)OC2=O (stereo unspecified) [STICTIC ACID] | 17.6 | > 100 µM (inactive) | 36.8 µM (inactive) | 24.9 µM (inactive) | 41.8 µM (inactive) |  | 20.7 µM (inactive) | 73.3 µM (inactive) | 32.5 µM (inactive) | 16 µM (inactive) | 20.2 µM (inactive) | 20.2 µM (inactive) | 31.4 µM (inactive) | 28.3 µM (inactive) | 57.9 µM (inactive) | 26.6 µM (inactive) | 37.6 µM (inactive) | 70.1 µM (inactive) | > 100 µM (inactive) | 17.6 µM (inactive)
14 | CCOP(=O)(OCC)C1(O)CC(n2cc(C)c(=O)[nH]c2=O)OC1CO (stereo unspecified) | > 100 | > 100 µM (inactive) | > 100 µM (inactive) | > 100 µM (inactive) | > 100 µM (inactive) |  | > 100 µM (inactive) | > 100 µM (inactive) | > 100 µM (inactive) | > 100 µM (inactive) | > 100 µM (inactive) | > 100 µM (inactive) | > 100 µM (inactive) | > 100 µM (inactive) | > 100 µM (inactive) | > 100 µM (inactive) | > 100 µM (inactive) | > 100 µM (inactive) | > 100 µM (inactive) | > 100 µM (inactive)
15 | CC1C2=CC=C(O2)C(C)(C)C2=CC=C(O2)C(C)(C)C2=CC=C(O2)C(C)(C)C2=CC=C1O2 | > 100 | > 100 µM (inactive) | > 100 µM (inactive) | > 100 µM (inactive) | > 100 µM (inactive) | > 100 µM (inactive) | > 100 µM (inactive) | > 100 µM (inactive) | > 100 µM (inactive) |  | > 100 µM (inactive) |  | > 100 µM (inactive) | > 100 µM (inactive) | > 100 µM (inactive) |  | > 100 µM (inactive) | > 100 µM (inactive) | > 100 µM (inactive) | 
16 | COc1ccc(C(=O)Cc2c(C(=O)c3ccccc3)c3ccccc3n2C(=O)c2ccccc2)cc1 | 46 | > 100 µM (inactive) | 37.2 µM (inactive) | 47.1 µM (inactive) | > 100 µM (inactive) | 67.6 µM (inactive) | > 100 µM (inactive) | > 100 µM (inactive) |  | 11.9 µM (inactive) | > 100 µM (inactive) | 17.7 µM (inactive) | > 100 µM (inactive) | > 100 µM (inactive) | 29.8 µM (inactive) | 18.3 µM (inactive) | > 100 µM (inactive) | > 100 µM (inactive) | > 100 µM (inactive) | 
